Here are results for 8 molecules from patent publication US11560582B2, “Fusion moieties and microbial hosts for protein production” (priority 2018, dated 2023).

For data set [1], the system named is A. wodanis strain 02/09/382 (8). The data set is described as follows: Antibiotic susceptibility testing on LB plates. Type of data set: cell-based, Aliivibrio wodanis. Conditions: 12° C. for 2 days. As to the method:
(§1) Antibiotic susceptibility testing was done by streaking A. wodanis cells onto LB plates supplemented with 2.5% NaCl and one of the following antibiotics: Chloramphenicol (2 μg/mL, Tetracycline (10 μg/mL), Carbenicillin (100 or 200 μg/mL) or Kanamycin (50 or 100 μg/mL). A. wodanis was regarded as susceptible (score=0) if no growth was detected, as intermediate susceptible (score=0.5) if poor growth was detected, or as resistant (score=1) if good growth was detected. The tested concentrations of antibiotics were similar to the recommended working concentrations for E. coli, except Chloramphenicol that was tested at 2 μg/mL (instead of 25 μg/mL). If the test scored as “resistant”, then the test was redone using 2× of the recommended concentration. All A. wodanis strains were streaked onto same agar plate and grown at 12° C. for 2 days.

Data set [2] relates to A. wodanis strain 06/09/178 (29). The data set is described as follows: Antibiotic susceptibility testing on LB plates. Type of data set: cell-based, Aliivibrio wodanis. Conditions: 12° C. for 2 days. How it is done:
as §1

The test system of data set [3] is A. wodanis strain 01/09/401 (11). The data set is described as follows: Antibiotic susceptibility testing on LB plates. Type of data set: cell-based, Aliivibrio wodanis. Conditions: 12° C. for 2 days. As to the method:
as §1

Data set [4] relates to A. wodanis strain 88/09/441 (12) (T). The data set is described as follows: Antibiotic susceptibility testing on LB plates. Type of data set: cell-based, Aliivibrio wodanis. Conditions: 12° C. for 2 days. How it is done:
as §1

In data set [5] the test system is A. wodanis strain 90/09/325 (5). The data set is described as follows: Antibiotic susceptibility testing on LB plates. Conditions: 12° C. for 2 days. The class given is cell-based, Aliivibrio wodanis. How it is done: as §1
The subject of data set [6] is A. wodanis strain 89/09/5532 (1). The data set is described as follows: Antibiotic susceptibility testing on LB plates. Type of data set: cell-based, Aliivibrio wodanis. The note with it: 12° C. for 2 days. As to the method:
as §1

In data set [7] the test system is A. wodanis strain 04/60/17347 (35). The data set is described as follows: Antibiotic susceptibility testing on LB plates. Type of data set: cell-based, Aliivibrio wodanis. The note with it: 12° C. for 2 days. How it is done: as §1
Data set [8] deals with A. wodanis strain 02/09/569 (7). The data set is described as follows: Antibiotic susceptibility testing on LB plates. The note with it: 12° C. for 2 days. The class given is cell-based, Aliivibrio wodanis. How it is done:
as §1

Data set [9] relates to A. wodanis strain 06/09/170 (27). The data set is described as follows: Antibiotic susceptibility testing on LB plates. The class given is cell-based, Aliivibrio wodanis. The note with it: 12° C. for 2 days. As to the method:
as §1

For data set [10], the system named is A. wodanis strain 03/09/160 (37). The data set is described as follows: Antibiotic susceptibility testing on LB plates. The note with it: 12° C. for 2 days. The class given is cell-based, Aliivibrio wodanis. As to the method: as §1
Data set [11] concerns A. wodanis strains. The data set is described as follows: Antibiotic resistance test, summary for all strains. Type of data set: cell-based, Aliivibrio wodanis. Conditions: the twelve strains used in this study. As to the method:
Next, we tested for resistance to antibiotics, four of which are commonly used in biotechnological applications, namely carbenicillin, kanamycin, tetracycline and chloramphenicol.
as §1

Data set [12] concerns A. wodanis strain K7F1 150913. Type of data set: cell-based, Aliivibrio wodanis. The note with it: 12° C. for 2 days. How it is done: as §1
For data set [13], the system named is A. wodanis strains. Conditions: have been reported; cited from earlier work.
Data set [14] relates to ssDNA "molecular beacon" substrate. The data set is described as follows: Exonuclease I molecular beacon activity assay. Type of data set: biochemical. The note with it: affinity purified enzyme expressed in A. wodanis 03/09/160; increasing enzyme. As to the method: The two enzyme activity assays used in this work are both based on so-called “molecular beacons”. Each “molecular beacon” consists of a hairpin shaped DNA oligonucleotide with an internally quenched fluorophore (in this case FAM). TAMRA was used as the FAM quencher. Enzyme activity of affinity purified AsExoI and MvExoI were tested in 50 μL reactions containing the following: 0.2 μM ssDNA “molecular beacon” substrate (5′-FAM-CGCCATCGGAGGTTC-TAMRA-3′ (SEQ ID NO:45)), 50 mM Tris pH 8.5, 30 mM MgCl2, 1 mM DTT, 0.2 mg/ml BSA, 2% glycerol and 8.5 nM enzyme (Exonuclease I). The reaction was carried out in a black 96-well fluorescence assay plate (Corning®), and increase in FAM fluorescence (excitation at 485 nm, emission at 518 nm) was measured as relative fluorescence units (RFU) at appropriate time intervals for 40 min.

Take `CC1(C)S[C@@H]2[C@H](NC(=O)C(C(=O)O)c3ccccc3)C(=O)N2[C@H]1C(=O)O` (stereo partly drawn) [CAR, Carbenicillin]: the “Antibiotics resistance CAR 100 μg/mL” value was determined as 1 in data set [1] (100 μg/mL); 1 in [2] (100 μg/mL); 1 in data set [3] (100 μg/mL); 0.5 in data set [4] (100 μg/mL); 1 in data set [5] (100 μg/mL); 1 in data set [6] (100 μg/mL). Further, the “Antibiotics resistance CAR 100 μg/mL” value in data set [7] (100 μg/mL), in data set [8] (100 μg/mL), in data set [9] (100 μg/mL), in data set [10] (100 μg/mL) and in data set [12] (100 μg/mL) was 1 throughout. The “Antibiotics resistance CAR 200 μg/mL” value was determined as 1 in [1] (200 μg/mL); 1 in data set [2] (200 μg/mL); 1 in data set [3] (200 μg/mL); 0.5 in data set [4] (200 μg/mL); 1 in data set [5] (200 μg/mL); 1 in data set [6] (200 μg/mL). For the same molecule, the “Antibiotics resistance CAR 200 μg/mL” value in data set [7] (200 μg/mL), in data set [8] (200 μg/mL), in data set [9] (200 μg/mL), in data set [10] (200 μg/mL) and in data set [12] (200 μg/mL) was 1 in each case. In addition, the “sensitivity / resistance to antibiotics” value in data set [11] is given as “resistance”.
`NC[C@H]1O[C@H](O[C@H]2[C@H](O)[C@@H](O[C@H]3O[C@H](CO)[C@@H](O)[C@H](N)[C@H]3O)[C@H](N)C[C@@H]2N)[C@H](O)[C@@H](O)[C@@H]1O` [KAN, Kanamycin]: the “Antibiotics resistance KAN 50 μg/mL” value in data set [1] (50 μg/mL), in [2] (50 μg/mL), in data set [3] (50 μg/mL), in data set [4] (50 μg/mL), in [5] (50 μg/mL) and in [6] (50 μg/mL) was 1 in each case. The “Antibiotics resistance KAN 50 μg/mL” value in [7] (50 μg/mL) is 1; in data set [8] (50 μg/mL), 1; in [9] (50 μg/mL) it was 0.5; in data set [10] (50 μg/mL), 1; in data set [12] (50 μg/mL), 1. Besides, the “Antibiotics resistance KAN 100 μg/mL” value in [1] (100 μg/mL), in data set [2] (100 μg/mL), in data set [3] (100 μg/mL), in data set [4] (100 μg/mL), in [5] (100 μg/mL) and in data set [6] (100 μg/mL) was 0.5 throughout. For the same molecule, the “Antibiotics resistance KAN 100 μg/mL” value in data set [7] (100 μg/mL), in data set [8] (100 μg/mL), in data set [9] (100 μg/mL), in data set [10] (100 μg/mL) and in data set [12] (100 μg/mL) was 0.5 each time.
Take `Cc1cc(NS(=O)(=O)c2ccc(N)cc2)no1` [sulfamethoxazole]: in [13], the “Resistance of A. wodanis strains (reported)” value (“Resistance … (reported)” below) is “Resistance”.
Consider `O=C(N[C@H](CO)[C@H](O)c1ccc([N+](=O)[O-])cc1)C(Cl)Cl` [CHL, chloramphenicol], for which the “Antibiotics resistance CHL 2 μg/mL” value in data set [1] (2 μg/mL), in data set [2] (2 μg/mL), in data set [3] (2 μg/mL), in data set [4] (2 μg/mL), in [5] (2 μg/mL) and in data set [6] (2 μg/mL) was 0 throughout. Besides, the “Antibiotics resistance CHL 2 μg/mL” value in data set [7] (2 μg/mL), in data set [8] (2 μg/mL), in data set [9] (2 μg/mL), in data set [10] (2 μg/mL) and in [12] (2 μg/mL) was 0 throughout. In addition, the “sensitivity / resistance to antibiotics” value in data set [11] is given as “sensitive”.
For `CO[C@@]1(NC(=O)Cc2cccs2)C(=O)N2C(C(=O)O)=C(COC(N)=O)CS[C@@H]21` [cefoxitin], the “Resistance … (reported)” value in [13] was “Resistance”.
As to `CC1(C)S[C@@H]2[C@H](NC(=O)[C@H](N)c3ccccc3)C(=O)N2[C@H]1C(=O)O` [ampicillin], the “Resistance … (reported)” value in data set [13] is “Resistance”.
Consider `CN(C)[C@@H]1C(O)=C(C(N)=O)C(=O)[C@@]2(O)C(O)=C3C(=O)c4c(O)cccc4[C@@](C)(O)[C@H]3C[C@@H]12` [TET, Tetracycline], for which the “Antibiotics resistance TET 10 μg/mL” value in data set [1] (10 μg/mL), in [2] (10 μg/mL), in data set [3] (10 μg/mL), in data set [4] (10 μg/mL), in data set [5] (10 μg/mL) and in data set [6] (10 μg/mL) was 0 throughout. Also, the “Antibiotics resistance TET 10 μg/mL” value in data set [7] (10 μg/mL), in [8] (10 μg/mL), in data set [9] (10 μg/mL), in data set [10] (10 μg/mL) and in data set [12] (10 μg/mL) was 0 in each case.

B1: AsExoI: Exonuclease I from Aliivibrio salmonicida (SEQ ID NO: 37), His-tagged, expressed in A. wodanis (protein, listed as Aliivibrio salmonicida)
chain: MPQDNAPSFFFFDYETWGTSPSLDRPCQFAGVRTDEDFNIIGEPLVIYCRPPIDYLPSPEACLITGITPQMAVSKGLSEPEFIAQIHNELSKPNTCSLGYNNIRFDDEVSRYTLYRNFFEPYGWSWQNGNSRWDLLDVMRAVYALRPEGIEWPKDEEGKPSFRLEKLSQANGIEHENAHDAMADVIATIELAKVVKKAQPKMFNYLLSMRHKKKAATLIDIIEMTPLMHVSGMFGVDRGNISWIVPVAWHPTNNNAVITIDLALDPAVFLELDAEQLHQRMYTKRSELGPDELPVPVKLVHLNKCPILAPAKTLTAENAIALNVDREACLRNLKVIRENPEIRQKLIDLYNIEPGYEKSSNVDTLLYDGFFSHADKTAIDMIRQSTPEQLIDFEPNVSDPRIKPLLFRYRARNFPHTLNESEQLRWQAHLQDYFETHMSDYETRFESLYLESEGNEKKTAILRAVYNYVQQLVS
modifications: 6xHis tag
Consider B1, for which, in data set [14], the “exonuclease activity (FAM fluorescence, RFU)” value is “dose-dependent”.
